# Reference: paper PMC8536124 (International Journal of Molecular Sciences, 2021)
# Where two headings read alike, the source gives them in different places.
# Legend:
# SW-620 = experiment: NCI-60 screening (SRB); format: cell-based, human; details: five-dose; for GI50 / CC50: Homo sapiens; for CC50: read-out: LC50 (the source's name)
# HS 578T = experiment: NCI-60 screening (SRB); format: cell-based, human; details: five-dose; for GI50 / CC50: Homo sapiens; for CC50: read-out: LC50 (the source's name)
# chorioallantoic membrane = experiment: HET-CAM irritation assay; details: for Irritation Score: 300 µL, 5 min, test compounds 1 µM, scale 0 to 21; for Type of Effect: Luepke scale
# Description: In this assay, the irritation potential may range from 0 to 21, with 0 being non-irritant and 21 being the most irritant. […] The irritation score was established according to Luepke scale: 0–0.9 indicates non-irritant, 1–4.9 indicates weakly irritant, 5–8.9 indicates moderately irritant, while 9–21 means strongly irritant (Table 6) [88, 89].
# The in vivo Hen’s Egg Chorioallantoic Membrane Test (HET-CAM) assay determines a potential irritant effect on the vascular plexus of the chorioallantoic membrane [94]. The HET-CAM method was carried out following ICCVAM recommendations published in November 2016 in Appendix G and adapted to our conditions [88, 95, 96]. Thus, a volume of 300 µL of control or test solution was applied and the modifications produced at the CAM level were monitored by means of stereomicroscopy (Discovery 8 Stereomicroscope, Zeiss), registering significant images (Axio CAM 105 color, Zeiss), before application after 5 min of contact with the samples. All images were processed using Zeiss ZEN software, Gimp 2.8, and ImageJ software.
# Negative control was represented by distilled water and solvent control DMSO 0.5%, and positive control by sodium lauryl sulphate (SLS) 0.5% in distillate water. The test substances were tested in concentrations of 1 µM.
# Finally, the following reactions were: hemorrhage—H (blood vessel bleeding), vascular lysis—L (disintegration of blood vessels), coagulation—C (intra- or extra-vascular protein denaturizing). A variety of analysis methods may be used to assess irritancy potential of test substances. One analysis method that has been used extensively is an irritation score (IS). The formula used to generate an IS value is:(1) IS=5×301−Sec H/300+7×300−Sec L/300+9×301−Sec C/300 where: H = hemorrhage; L = vessel lysis; C = coagulation; hemorrhage time (Sec H) = onset of hemorrhage reactions on CAM (in seconds); lysis time (Sec L) = onset of vessel lysis on CAM (in seconds); coagulation time (Sec C) = onset of coagulation formation on CAM (in seconds). Means values are obtained. […] The IS values range on a scale between 0 and 21.
# K-562 = experiment: NCI-60 screening (SRB); format: cell-based, human; details: for GI50 / CC50: Homo sapiens, K562, five-dose; for CC50: read-out: LC50 (the source's name); for TGI: five-dose
# RPMI cells = experiment: DAPI staining, nuclear morphology; format: cell-based, human; details: 24 h
# Protocol: (§1) The cells were cultured in 24-well plates at 2 × 10^5 cells/well. Two samples (compounds 4 and 6) of three different concentrations (0.1, 1, and 5 μM) and three concentrations of DMSO (0.1, 1, 5 μM) were used to stimulate the cells. The immunofluorescent staining technique was performed according to the protocol in [92]. Thus, after 24 h of stimulation, the cells were fixed by adding 4% paraformaldehyde and incubating at room temperature for one hour. After fixation, cell permeability was performed with 2% Triton X solution in phosphate-buffered saline (PBS). After 30 min of incubation at room temperature, blocking of permeabilization was performed with 0.01% Triton X solution and incubation at RT for one hour. DAPI staining was used in a concentration of 300 nM to visualize the nuclei. The cells were analyzed by fluorescence microscope at 40× magnification using CellSens V1.15 software (Olympus, Tokyo, Japan) and Image J software.
# SK-MEL-28 cells = experiment: DAPI staining, nuclear morphology; format: cell-based, human; details: SK-MEL28, 24 h
# Protocol: as §1
# [1] = tested on: NCI-60 cancer cell line panel; experiment: NCI-60 screening (SRB), full panel; format: cell-based, human; details: for Positive Cytostatic Effect (cell lines with percent growth 0 to 50 / total) / Positive Cytotoxic Effect (cell lines with percent growth <0 / total) / activity at 10 µM: 1 dose 10 µM; for GI50 / CC50 / TGI MG_MID60: five-dose; for CC50: read-out: LC50 MG_MID60; for activity at 10 µM: 60 cell lines, 48 h
# Description: The experimental data allow the assessment of the cytostatic effect, indicated by growth inhibition values ranging between 0 and 100, as well as of the cytotoxic effect, indicated by negative values.
# The mean GI50 (molar concentration of the compound that inhibits 50% net cell growth), TGI (molar concentration of the compound leading to the total inhibition), and LC50 (molar concentration of the compound leading to 50% net cell death (presented in negative logarithm)) values across each cell line are shown in Table 2.
# The selectivity index (SI), calculated as the ratio between the full panel MG_MID60 (μM) of compounds 4, 6, and 9 by their respective subpanels MG_MID of the cell line (μM), was introduced as a quantification tool for the selectivity of each compound in terms of anticancer effect (Table 3).
# Primary anticancer assays were performed according to the NCI protocol, as described elsewhere (see e.g., http://dtp.nci.nih.gov accessed on 1 November 2018). The compounds were added at a single concentration, and the cell cultures were incubated for 48 h. The end point determinations were made with a protein-binding dye, sulforhodamine B (SRB). […] The percentage of growth was evaluated spectrophotometrically versus controls not treated with test agents after 48 h exposure and using SRB protein assay to estimate cell viability or growth. Three antitumor activity dose-response parameters were calculated for each cell line. Furthermore, mean graph midpoints (MG_MID) were calculated for each of the parameters, giving an average activity parameter over all cell lines for the tested compound. For the MG_MID calculation, insensitive cell lines were included with the highest concentration tested.
# MDA-MB-435 = experiment: NCI-60 screening (SRB); format: cell-based, human; details: five-dose; for GI50 / CC50: Homo sapiens; for CC50: read-out: LC50 (the source's name)
# A498 = experiment: NCI-60 screening (SRB); format: cell-based, human; details: A498, five-dose; for GI50 / CC50: Homo sapiens; for CC50: read-out: LC50 (the source's name)
# NCI-H322M = experiment: NCI-60 screening (SRB); format: cell-based, human; details: five-dose; for GI50 / CC50: Homo sapiens; for CC50: read-out: LC50 (the source's name)
# HT29 = experiment: NCI-60 screening (SRB); format: cell-based, human; details: for GI50 / CC50: Homo sapiens, HT-29, five-dose; for CC50: read-out: LC50 (the source's name); for TGI: five-dose
# M14 = experiment: NCI-60 screening (SRB); format: cell-based, human; details: five-dose; for GI50 / CC50: Homo sapiens; for CC50: read-out: LC50 (the source's name)
# ACHN = experiment: NCI-60 screening (SRB); format: cell-based, human; details: five-dose; for GI50 / LC50: Homo sapiens
# U251 = experiment: NCI-60 screening (SRB); format: cell-based, human; details: for GI50 / CC50: Homo sapiens, U-251; for GI50 / CC50 / TGI: U251, five-dose; for CC50: read-out: LC50 (the source's name)
# A375 cells = experiment: Cell morphology and confluence; format: cell-based, human; details: 24 h
# Protocol: A morphological examination of the tested cells was conducted in order to provide additional data for the investigated compounds in terms of their biological activity.
# EKVX = experiment: NCI-60 screening (SRB); format: cell-based, human; details: five-dose; for GI50 / LC50: Homo sapiens
# OVCAR-4 = experiment: NCI-60 screening (SRB); format: cell-based, human; details: five-dose; for GI50 / CC50: Homo sapiens; for CC50: read-out: LC50 (the source's name)
# 786-0 = experiment: NCI-60 screening (SRB); format: cell-based, human; details: five-dose; for GI50 / CC50: Homo sapiens; for CC50: read-out: LC50 (the source's name)
# T-47D = experiment: NCI-60 screening (SRB); format: cell-based, human; details: five-dose; for GI50 / LC50 (concentration killing 50% of cells): Homo sapiens, T47D
# [2] = Homo sapiens, bound, read-out: GI50 against all human tumor cells
# [3] = Homo sapiens, mean graph midpoint, full panel, read-out: GI50 MG_MID60
# [4] = Homo sapiens, mean graph midpoint, full panel
# [5] = Homo sapiens, read-out: Mean Growth, %
# [6] = Homo sapiens, read-out: Range of Growth, %
# [7] = mean graph midpoint, full panel
compound,measurement,setting,value
CCN1CCN(C(=O)[C@]23CCC(C)(C)C[C@H]2C2=CC[C@@H]4[C@@]5(C)C/C(=C/c6cccnc6)C(=O)C(C)(C)[C@@H]5CC[C@@]4(C)[C@]2(C)CC3)CC1 [Compound 6],GI50,SW-620,1.78 µM
same,CC50,SW-620,8.46 µM
same,TGI,SW-620,3.88 µM
same,GI50,HS 578T,1.83 µM
same,CC50,HS 578T,> 100 µM
same,TGI,HS 578T,5.37 µM
same,Irritation Score,chorioallantoic membrane,0
same,Type of Effect,chorioallantoic membrane,Non-irritant
same,GI50,K-562,0.443 µM
same,CC50,K-562,> 100 µM
same,TGI,K-562,3.34 µM
same,nuclear morphology (DAPI),RPMI cells; 0.1 µM,nuclear fragmentation
same,nuclear morphology (DAPI),RPMI cells; 1 µM,chromatin condensation
same,nuclear morphology (DAPI),RPMI cells; 5 µM (highest concentration),apoptotic bodies
same,nuclear morphology (DAPI),"SK-MEL-28 cells; 0.1, 1, 5 μM","dose-dependent effect was recorded in terms of membrane blebbing, nuclear condensation, and fragmentation"
same,Positive Cytostatic Effect (cell lines with percent growth 0 to 50 / total),[1],30/60
same,Positive Cytotoxic Effect (cell lines with percent growth <0 / total),[1],4/60
same,GI50,[1]; [2],< 4 µM
same,GI50,[1]; [3],1.52 µM
same,CC50,[1]; [4],32.4 µM
same,activity at 10 µM,[1]; [5],23.4%
same,activity at 10 µM,[1]; [6],-91 to 83.8%
same,TGI MG_MID60,[1]; [7],6.29 µM
same,GI50,"[1]; mean graph midpoint, full panel, read-out: GI50 MG_MID60",1.53 µM
same,selectivity class,[1]; toward some individual cell lines at the LC50 level,moderate selectivity (Ratios between 3 and 6 are indicators of moderate selectivity)
same,GI50,MDA-MB-435,1.48 µM
same,CC50,MDA-MB-435,6.52 µM
same,TGI,MDA-MB-435,3.11 µM
same,TGI,A498,3.53 µM
same,GI50,A498,1.66 µM
same,CC50,A498,7.48 µM
same,GI50,NCI-H322M,2.87 µM
same,CC50,NCI-H322M,33.9 µM
same,TGI,NCI-H322M,9.25 µM
same,GI50,HT29,1.71 µM
same,CC50,HT29,44.5 µM
same,TGI,HT29,4.67 µM
same,GI50,M14,1.6 µM
same,CC50,M14,6.2 µM
same,TGI,M14,3.15 µM
same,GI50,ACHN,2.6 µM
same,LC50,ACHN,32.4 µM
same,TGI,ACHN,10.5 µM
same,GI50,U251,1.58 µM
same,CC50,U251,6.13 µM
same,Growth %,"U251; U251 (CNS cancer), 1 dose 10 µM",−88.15%
same,TGI,U251,3.11 µM
same,cell morphology and confluence,"A375 cells; all concentrations (0.1, 1, 5 μM)",noticeable decrease in cell confluence
same,GI50,EKVX,1.9 µM
same,LC50,EKVX,43.5 µM
same,TGI,EKVX,6.48 µM
same,GI50,OVCAR-4,2.17 µM
same,CC50,OVCAR-4,47.8 µM
same,TGI,OVCAR-4,7.85 µM
same,GI50,786-0,1.6 µM
same,CC50,786-0,5.91 µM
same,TGI,786-0,3.08 µM
same,GI50,T-47D,2.61 µM
same,LC50 (concentration killing 50% of cells),T-47D,> 100 µM
same,TGI,T-47D,13.7 µM
"CCN1CCN(C(=O)[C@]23CC[C@@H](C)[C@H](C)[C@H]2C2=CC[C@@H]4[C@@]5(C)CCC(=O)C(C)(C)[C@@H]5CC[C@@]4(C)[C@]2(C)CC3)CC1 [Compound 4, N-(3-oxo-ursan-12-en-28-oyl)-ethylpiperazine]",GI50,SW-620,0.902 µM
same,CC50,SW-620,3.44 µM
same,TGI,SW-620,1.76 µM
same,GI50,HS 578T,1.07 µM
same,CC50,HS 578T,26.5 µM
same,TGI,HS 578T,2.68 µM
same,Irritation Score,chorioallantoic membrane,0
same,Type of Effect,chorioallantoic membrane,Non-irritant
same,GI50,K-562,0.98 µM
same,CC50,K-562,4.84 µM
same,TGI,K-562,2.18 µM
same,nuclear morphology (DAPI),RPMI cells; 0.1 µM,massive chromatin condensation
same,nuclear morphology (DAPI),RPMI cells; 1 µM,visible nuclear fragmentation
same,nuclear morphology (DAPI),RPMI cells; 5 µM (highest concentration),blebbing of the nuclear membrane
same,nuclear morphology (DAPI),SK-MEL-28 cells; 0.1 μM,intense condensation of the cell nuclei
same,nuclear morphology (DAPI),SK-MEL-28 cells; 1 μM,chromatin condensation is accompanied by the formation of apoptotic bodies
same,nuclear morphology (DAPI),SK-MEL-28 cells; 5 μM,incipient nuclear fragmentation
same,Positive Cytostatic Effect (cell lines with percent growth 0 to 50 / total),[1],60/60
same,Positive Cytotoxic Effect (cell lines with percent growth <0 / total),[1],60/60
same,GI50,[1]; [2],< 2 µM
same,GI50,"[1]; Homo sapiens, read-out: GI50 against the most sensitive cell lines",0.7 to 0.99 µM
same,GI50,[1]; [3],1.03 µM
same,CC50,[1]; [4],12.3 µM
same,activity at 10 µM,[1]; [5],-10.5%
same,activity at 10 µM,[1]; [6],-85.7 to -41.5%
same,selectivity class,"[1]; all GI50, TGI, and LC50 levels",nonselective (ratios below 3 indicate nonselective compounds)
same,TGI MG_MID60,[1]; [7],2.74 µM
same,GI50,MDA-MB-435,1.05 µM
same,CC50,MDA-MB-435,5.22 µM
same,TGI,MDA-MB-435,2.30 µM
same,TGI,A498,2.42 µM
same,GI50,A498,0.927 µM
same,CC50,A498,7.92 µM
same,GI50,NCI-H322M,1.57 µM
same,CC50,NCI-H322M,16.8 µM
same,TGI,NCI-H322M,5.43 µM
same,GI50,HT29,0.913 µM
same,CC50,HT29,4.59 µM
same,TGI,HT29,2.05 µM
same,GI50,M14,0.794 µM
same,CC50,M14,3.28 µM
same,TGI,M14,1.61 µM
same,GI50,ACHN,1.33 µM
same,LC50,ACHN,14.8 µM
same,TGI,ACHN,4.38 µM
same,GI50,U251,0.854 µM
same,CC50,U251,4 µM
same,TGI,U251,1.85 µM
same,cell morphology and confluence,A375 cells; 0.1 μM,caused cell death
same,cell morphology and confluence,A375 cells; 1 and 5 μM,visible loss of cell confluence
same,GI50,EKVX,0.916 µM
same,LC50,EKVX,8.95 µM
same,TGI,EKVX,2.42 µM
same,GI50,OVCAR-4,1.26 µM
same,CC50,OVCAR-4,18 µM
same,TGI,OVCAR-4,4.74 µM
same,GI50,786-0,0.814 µM
same,CC50,786-0,3.56 µM
same,TGI,786-0,1.70 µM
same,GI50,T-47D,1.33 µM
same,LC50 (concentration killing 50% of cells),T-47D,> 50 µM
same,TGI,T-47D,3.89 µM
